Laboratory results reported in paper PMC4255739 (Journal of Medicinal Chemistry, 2014).
Blank lines part the entries; values can stand above or below the compound they belong to.

Assays:
MMP-1 = conditions: read-out: IC50 MMP-1; antitarget selectivity; cited from earlier work
MMP-8 = conditions: read-out: IC50 MMP-8; antitarget selectivity; cited from earlier work
cathepsin K = target: T1, cathepsin K (Homo sapiens, UniProt P43235); assay: Protease profiling panel, cathepsin K; format: biochemical; conditions: read-out: highest inhibitory activity against cathepsin K
T1 sequence (P43235 115-329): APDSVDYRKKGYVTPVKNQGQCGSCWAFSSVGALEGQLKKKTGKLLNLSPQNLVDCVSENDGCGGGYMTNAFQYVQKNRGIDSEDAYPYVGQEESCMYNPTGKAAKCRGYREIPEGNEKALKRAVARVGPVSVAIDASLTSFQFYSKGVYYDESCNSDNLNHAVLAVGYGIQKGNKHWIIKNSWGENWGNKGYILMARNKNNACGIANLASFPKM

caspase 5 = target: T2, caspase 5 (Homo sapiens, UniProt P51878); assay: Protease profiling panel, caspase 5; format: biochemical; conditions: 20 μM to 0.1 nM range
T2 sequence (P51878 138-434 limits assumed): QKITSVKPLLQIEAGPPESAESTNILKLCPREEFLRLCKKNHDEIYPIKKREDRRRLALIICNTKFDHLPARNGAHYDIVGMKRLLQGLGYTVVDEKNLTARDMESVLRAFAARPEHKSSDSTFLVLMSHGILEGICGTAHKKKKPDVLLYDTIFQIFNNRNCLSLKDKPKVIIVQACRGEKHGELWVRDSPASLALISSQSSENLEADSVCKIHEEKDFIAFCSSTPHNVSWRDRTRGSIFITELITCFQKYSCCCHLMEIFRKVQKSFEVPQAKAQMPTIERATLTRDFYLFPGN

CYP3A4 = CYP3A4 (Homo sapiens, UniProt P08684); assay: CYP450 panel inhibition, CYP3A4; conditions: human liver microsomes, pH 7.4, probe testosterone
MMP-13 [1] = target: T3, MMP-13 (Homo sapiens, UniProt P45452); assay: Single inhibitor kinetics, MMP-13 hydrolysis of fTHP-15; format: biochemical
MMP-13 [2] = target: T3, MMP-13; assay: Dual inhibition kinetics; format: biochemical
MMP-13 [3] = target: T3, MMP-13; assay: Cartilage explant assay; format: biochemical; conditions: read-out: inhibition of cartilage degradation

Chain of CYP3A4 (P08684 whole entry): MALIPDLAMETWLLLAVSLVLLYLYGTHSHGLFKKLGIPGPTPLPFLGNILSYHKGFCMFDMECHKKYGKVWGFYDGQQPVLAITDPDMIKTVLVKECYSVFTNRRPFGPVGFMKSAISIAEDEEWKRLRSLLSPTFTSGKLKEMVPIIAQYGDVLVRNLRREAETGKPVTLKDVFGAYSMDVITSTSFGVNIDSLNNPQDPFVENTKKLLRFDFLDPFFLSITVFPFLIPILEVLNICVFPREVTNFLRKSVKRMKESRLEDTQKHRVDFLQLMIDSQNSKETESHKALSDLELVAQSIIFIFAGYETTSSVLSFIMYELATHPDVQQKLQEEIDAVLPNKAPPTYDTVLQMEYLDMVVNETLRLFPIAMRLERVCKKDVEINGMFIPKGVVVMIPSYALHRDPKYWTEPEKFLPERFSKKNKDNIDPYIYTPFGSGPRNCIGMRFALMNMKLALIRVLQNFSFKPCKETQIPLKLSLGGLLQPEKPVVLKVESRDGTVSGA

SMILES: COC(=O)c1ccc(CSc2nc3c(c(=O)[nH]2)CCC3)cc1 [Compound 3]
IC50 (MMP-1): > 40 µM
IC50 (MMP-8): > 40 µM

inhibition at 20 µM (cathepsin K): 20%
activity against caspase 5 on inspection of dose response (caspase 5): artifactual
inhibition at 20 µM (CYP3A4): 20%
SMILES: Cc1ccc(CSc2nc(O)c3c(n2)CCC3)cc1 [Compound 2]
IC50 (MMP-1): > 40 µM
IC50 (MMP-8): > 40 µM

pKi (MMP-13 [1]; from fTHP-15 Ki): 2.9
Ki (MMP-13 [1]; read-out: fTHP-15 Ki, fTHP-15 substrate, mixed inhibition model, nonlinear regression): 1190 µM
SMILES: CC(=O)NO [Compound 6, N-hydroxyacetamide]

B value (Yonetani–Theorell) (MMP-13 [2]; 1 (0–2 μM) in combination with 6 (AHA, 0–1.25 mM), B<1 = synergistic binding): < 1
B value (Yonetani–Theorell) (MMP-13 [2]; 1 in combination with 4, B<1 = positive cooperativity): < 1
B value (Yonetani–Theorell) (MMP-13 [2]; 1 in combination with 5, B<1 = synergistic binding): < 1
inhibition at 10 µM (MMP-13 [3]): 69 ± 17%
inhibition at 20 µM (CYP3A4): 14%
SMILES: Oc1nc(SCc2ccc(Cl)cc2)nc2c1CCC2 [Compound 1]
